# Source: publication PMC10848209, “A Comparative Study on the Complexation of the Anticancer Iron Chelator VLX600 with Essential Metal Ions” (Inorganic Chemistry, 2024)
# How the values were obtained:
# [1] = parameters: method as in PMID 30236787; settings: vs NHE; cited from earlier work
# [2] = tested on: SW480 colon carcinoma cells; test: MTT cytotoxicity assay, SW480; settings: read-out: IC50 SW480, 2 × 10^3 cells, 96 h exposure
# Protocol: (§1) CH1/PA-1 (provided by L.R. Kelland, CRC Centre for Cancer Therapeutics, Institute of Cancer Research, Sutton, UK; confirmed by STR profiling as PA-1 ovarian teratocarcinoma cells at Multiplexion, Heidelberg, Germany), SW480 colon carcinoma, and A549 non-small-cell lung cancer cells (both obtained from the American Type Culture Collection, Manassas, VA, USA) were maintained in a minimal essential medium (MEM) supplemented with 1 mM sodium pyruvate, 4 mM L-glutamine, 1% (v/v) nonessential amino acids from 100-fold stock (all purchased from Sigma-Aldrich), and 10% heat-inactivated fetal bovine serum (FBS; BioWest, Nuaillé, France).
# (§2) Cells were grown as monolayers in 75 cm^2 culture flasks (Starlab, Hamburg, Germany) at 37 °C in a humidified atmosphere containing 5% CO2.
# (§3) The cytotoxic activity of the compounds was determined by the 3-(4,5-dimethylthiazol-2-yl)-2,5-diphenyl-2H-tetrazolium bromide (MTT) assay (obtained from Acros Organics, Geel, Belgium) in at least three independent experiments. A total of 1 × 10^3 CH1/PA-1, 2 × 10^3 SW480, and 3 × 10^3 A549 cells were seeded at 100 μL per well into 96-well microculture plates (Starlab, Hamburg, Germany) 24 h before a treatment with the test compounds for a period of 96 h. […] In the case of the metal complexes, we first mixed the ligand and the aqueous metal salt solution (c = 10 mM) in the appropriate ratio followed by dilution with the medium.
# (§4) CH1/PA-1, SW480, and A549 cells were treated with 100 μL/well of the test compounds serially diluted in complete MEM. […] After 4 h incubation, the MTT-containing medium was replaced with 150 μL DMSO per well to dissolve the formazan product formed by viable cells.
# (§5) The IC50 values, i.e., the concentrations resulting in half the number of viable cells relative to untreated controls, were interpolated from concentration–effect curves of at least three independent experiments.
# [3] = tested on: MCF-7 breast cancer cells; test: MTT cytotoxicity assay, MCF-7; settings: read-out: IC50 MCF-7, 10^4 cells, 72 h exposure
# Protocol: as §2
# (§6) The cytotoxic activity of the compounds was determined by the 3-(4,5-dimethylthiazol-2-yl)-2,5-diphenyl-2H-tetrazolium bromide (MTT) assay (obtained from Acros Organics, Geel, Belgium) in at least three independent experiments. […] Furthermore, 1 × 10^4 cells of Colo205, Colo320, and MCF-7 as well as MRC-5 were seeded overnight prior to the assay with 72 h exposure to the compounds tested. […] In the case of the metal complexes, we first mixed the ligand and the aqueous metal salt solution (c = 10 mM) in the appropriate ratio followed by dilution with the medium. The metal salts dissolved in the same way were also tested.
# (§7) MTT assays with the cell lines Colo205, Colo320, MCF-7, and MRC-5 were performed after addition of the substances and a subsequent 72 h incubation time. At the end of the incubation period, 20 μL of the MTT solution (from a stock solution of 5 mg/mL) was added to each well. After the staining, the plates were incubated at 37 °C for 4 h, then 100 μL of SDS solution (10% in 0.01 M HCI) was added to each well, and the plates were incubated at 37 °C overnight. The optical density (OD) was determined at 540/630 nm with a Multiscan EX ELISA reader (Thermo Labsystems).
# as §5
# [4] = tested on: Colo320 (doxorubicin-resistant) colon adenocarcinoma cells; test: MTT cytotoxicity assay, Colo320; settings: read-out: IC50 Colo320, 10^4 cells, 72 h exposure
# Protocol: as §2, §6, §7, §5
# [5] = tested on: A549 non-small-cell lung cancer cells; test: MTT cytotoxicity assay, A549; settings: read-out: IC50 A549, 3 × 10^3 cells, 96 h exposure
# Protocol: as §1, §2, §3, §4, §5
# [6] = tested on: CH1/PA-1 ovarian teratocarcinoma cells; test: MTT cytotoxicity assay, CH1/PA-1; settings: read-out: IC50 CH1/PA-1, 10^3 cells, 96 h exposure
# Protocol: as §1, §2, §3, §4, §5
# [7] = tested on: Colo205 colon adenocarcinoma cells; test: MTT cytotoxicity assay, Colo205; settings: read-out: IC50 Colo205, 10^4 cells, 72 h exposure
# Protocol: as §2, §6, §7, §5
# [8] = tested on: MRC-5 normal embryonal lung fibroblasts; test: MTT cytotoxicity assay, MRC-5; settings: read-out: IC50 MRC-5, 10^4 cells, 72 h exposure, nontumoral fibroblasts
# Protocol: as §2, §6, §7, §5
Compound,redox potential of the Fe(III)/Fe(II) complexes of the ligand [1],IC50 [2] [µM],IC50 [3] [µM],IC50 [4] [µM],IC50 [5] [µM],IC50 [6] [µM],IC50 [7] [µM],IC50 [8] [µM]
"c1cnc2c(c1)ccc1cccnc12 [1,10-phenantroline]",+1130 mV,–,–,–,–,–,–,–
"c1ccc(-c2ccccn2)nc1 [2,2-bipiyridine]",+1100 mV,–,–,–,–,–,–,–
[Cl][Cu][Cl] [CuCl2],–,154 ± 21,> 10,> 10,142 ± 16,28 ± 5,> 10,> 10
[Cl][Fe]([Cl])[Cl] [FeCl3],–,> 200,> 10,> 10,> 200,> 200,> 10,> 10
[Cl-].[Cl-].[Zn+2] [ZnCl2],–,125 ± 16,> 10,> 10,123 ± 9,66 ± 3,> 10,> 10
O=C(O)c1ccc(-n2nc(-c3ccccc3O)nc2-c2ccccc2O)cc1 [deferasirox],−400 mV,–,–,–,–,–,–,–
Cc1c(O)c(=O)ccn1C [deferiprone],−620 mV,–,–,–,–,–,–,–
CC(=O)N(O)CCCCCNC(=O)CCC(=O)N(O)CCCCCNC(=O)CCC(=O)N(O)CCCCCN [deferoxamine B],−450 mV,–,–,–,–,–,–,–
